Earlier results on one molecule are cited in article PMC7998926 (Microorganisms, 2021).

The subject of the data set is MARV. To be noted: mouse, in vivo; cited from earlier work.

`CC(C)COCC(CN(Cc1ccccc1)c1ccccc1)N1CCCC1` (stereo not shown) [Bepridil]: the protection entry is “strongly protected”.
